One substance from patent US20110224133A1 (University of Southern California, priority 2008, published 2011) can be followed below.

Assay [1] has as its system NIH3T3 cells. The assay is described as follows: GFP-LC3 autophagy assay in NIH3T3 cells expressing FLIP. The note with it: ectopic expression in NIH3T3 cells, Hank's solution 4 hr or 2 μM rapamycin 3 hr. Type of assay: cell-based, murine.
Assay [2] deals with LC3-II. Put plainly: Anti-LC3 immunoblotting of starved NIH3T3 cells expressing FLIP. Conditions: starvation, Hank's solution 4 hr. Type of assay: cell-based, murine. The protocol: The arrows indicate autophagosomes.
During autophagy, an LC3 precursor (LC3-I) undergoes cleavage and lipidation to yield its processed form (LC3-II) (Mizushima et al. (2008) Nature 451:1069-1075). Immunoblotting was performed with an antibody against LC3 to further measure autophagic activity. […] Polypeptides were resolved by SDS-polyacrylamide gel electrophoresis (PAGE) and transferred to a PVDF membrane (Bio-Rad). […] The proteins were visualized by a chemiluminescence reagent (Pierce) and detected by a Fuji Phosphor Imager. […] Finally, the ability of FLIP to block autophagy in multiple cell types was evaluated.

Assay [3] has as its system HCT116, HaCat, and MEF cells. Put plainly: GFP-LC3 autophagy assay in HCT116, HaCat and MEF cells. Type of assay: cell-based. The note with it: 2 μM rapamycin 3 hr.
Assay [4] relates to NF-κB. The assay is described as follows: NF-κB luciferase reporter assay in NIH3T3 cells. Type of assay: cell-based, murine. The note with it: 48 hr post-transfection. The method, then: (§1) In panel A, propidium iodide (PI) staining and flow cytometry analysis were performed to determine apoptosis levels. In panels B-C, NIH3T3 cells containing vector, KSHV vFLIP, or its mutants were transfected with an NF-κB luciferase reporter construct and a control renilla luciferase plasmid, pRL-SV40. At 48 hr post-transfection, luciferase activity was measured with a luminometer using a dual luciferase assay kit and normalized with renilla luciferase activity to determine transfection efficiency (B). […] At 48 hr post-transfection, luciferase activity was measured as described above (E).
(§2) Propidium iodide (PI) staining and flow cytometry analysis were performed to determine apoptosis levels (FIG. 3A). Alternatively, NIH3T3 cells containing vector, KSHV vFLIP, or its mutants were transfected with an NF-κB-luciferase reporter construct and a control renilla luciferase plasmid, pRL-SV40 (Promega). At 48 hr post-transfection, luciferase activity was measured with a luminometer using a dual luciferase assay kit (Promega) and normalized with renilla luciferase activity to determine transfection efficiency (FIG. 3B).
For orientation: Reporter assays use an easily measured gene product as a stand-in for the process of interest.

Assay [5] relates to NIH3T3 cells. The assay is described as follows: TNF-α/CHX-induced apoptosis, PI staining and flow cytometry. Type of assay: cell-based, murine. The note with it: 12 hr. The method, then: as §1, §2
Background: In flow cytometry, cells or beads pass a laser one at a time.

Assay [6] addresses T1, Atg3 (Homo sapiens, UniProt Q9NT62).
T1 construct: expressed in transfected cells; host or cells: HEK293T
The assay is described as follows: Co-immunoprecipitation and GST pulldown with Atg3 in HEK293T cells. Type of assay: binding. The note with it: HEK293T cells, 48 hr post-transfection. The source says:
(§3) For panel A, at 48 hr post-transfection with Flag-vFLIP and/or GFP-Atg3 (left) or Flag-vFLIP and/or GST-Atg3 (middle), HEK293T cells were used for immunoprecipitation with αFlag, αGFP, or GST pulldown, followed by immunoblotting with the indicated antibodies. For panel A (right), HEK293T cells transfected with FIag-vFLIP were used for immunoprecipitation with mouse IgG or αFlag, followed by immunoblotting with αAtg3. Panel B (top) depicts a schematic diagram of human Atg3. N,N-terminus; FR, flexible region; C, C-terminus. […] Panel C (top) depicts a schematic diagram of KSHV vFLIP. […] For panel F, NIH3T3-Vector and NIH3T3-vFLIP cells were treated with 2 nM rapamycin for 12 hr and used for IP with αAtg3, followed by immunoblotting with αLC3. In panels A-F, whole cell lysates (WCLs) were used for immunoblotting with the indicated antibodies to show expression.
(§4) WCLs were used for immunoblotting with αFlag or αGST. […] WCLs were used for immunoblotting with αFlag or αGST.
(§5) The ability of FLIP to bind to Atg3 was evaluated by co-immunoprecipitation assay. HEK293T cells were transfected with Flag-vFLIP and/or GFP-Atg3 or Flag-vFLIP and/or GST-Atg3, and at 48 hr post-transfection, cells were harvested and lysed in an NP40 buffer supplemented with complete protease inhibitor cocktail (Roche). After pre-clearing with protein A/G agarose beads for 1 hr at 4° C., whole-cell lysates were used for immunoprecipitation with αFlag, αGFP, or GST. Generally, 1-4 μg of the antibody was added to 1 ml of the cell lysate and incubated at 4° C. for 8 to 12 hr. The immunoprecipitates were then washed extensively with a lysis buffer and eluted by boiling them with an SDS loading buffer for 5 min. Following immunoprecipitation, samples were treated to immunoblot using αAtg3 (1:500) (Novus).
(§6) The overall structure of yeast Atg3 has a unique hammer-like shape with the N-terminal and C-terminal regions discretely responsible for Atg7 and Atg8 (equivalent to mammalian LC3) binding, respectively. (Yamada et al. (2007) J. Biol. Chem. 282:8036-8043). Based on the structure of yeast Atg3, human Atg3 deletion mutants fused with a GST mammalian expression vector were constructed: GST-Atg31-93, GST-Atg3193-268, GST-Atg3268-315, and GST-Atg3193-315.

Assay [7] deals with Atg3. The assay is described as above. The note with it: GST-Atg3 deletion mutants, GST pulldown. Type of assay: binding, human.
Excerpt: as §3, §4, §5, §6

Assay [8] concerns the target T2, Atg3-LC3 interaction (Homo sapiens, UniProt Q9NT62).
T2 construct: expressed in transfected cells; host or cells: HEK293T
Put plainly: Competition with LC3 for Atg3 binding. Conditions: HEK293T cells, GST-Atg3 and GFP-LC3.
Excerpt: as §3
(§7) Due to identical Atg3 binding patterns seen in vFLIP and LC3, the ability of vFLIP to directly compete with LC3 for Atg3 binding was tested. HEK293T cells were transfected with GST-Atg3 and GFP-LC3 along with increasing amount of Flag-vFLIP. At 48 hr post-transfection, GST pulldown was performed as described above, followed by immunoblotting with αGFP or αFlag.

In assay [9] the test system is Atg3-LC3 interaction. The assay is described as follows: Competition with LC3 for Atg3 binding. Conditions: NIH3T3 cells, normal conditions; weakly recovered with 2 nM rapamycin 12 hr.
Excerpt: as §3, §7

The test system of assay [10] is BCBL1 cells. The assay is described as follows: Protection of TREX-BCBL cells from rapamycin- or zVAD-induced growth suppression and autophagic death. Type of assay: cell-based, human. The note with it: ectopic expression in BCBL1 cells; 50 nM rapamycin or 50 μM zVAD, 6 days. The protocol: The effect of vFLIP on autophagy was tested in a KSHV-infected BCBL1 cell line.

Assay [11] concerns TREX-BCBL cells. The assay is described as follows: Autophagy and cell death in TREX-BCBL-vFLIP cells. The note with it: for suppression of rapamycin-induced autophagy (and cell death) in TREX-BCBL cells: doxycycline-induced vFLIP, 2 μM rapamycin 12 hr.
Procedure: Subsequently, autophagy was quantified as means (±SD) of the combined results from three independent experiments. 2 μM rapamycin treatment was included as a control. For panels B (right), TREX-BCBL-Vector and TREX-BCBL-vFLIP cells were treated with Doxycycline for 24 hr, followed by incubation with 0, 30, or 50 μM of TAT only, the K-α2, or the K-α4 peptide (top), or TAT only, the C-α2, or the C-α4 peptide (bottom) for an additional 12 hr and a BC Z2 CS analyzer used to determine cell death (as a percentage). […] For panel E, TREX-BCBL-Vector and TREX-BCBL-vFLIP cells were treated with the K-α and the K-α4 (30 μM each) peptide for 12 hr, followed by immunoblotting with αLC3 and αactin. […] For panel G, various human lymphoma cells were treated with 0, 30, or 50 μM of the K-α2 peptide (left) or the K-α4 peptide (right) for 12 hr and cell death (as a percentage) was determined using a BC Z2 CS Analyzer. For panel H, KSHV-infected BCBL1 cells were incubated with various combinations of rapamycin (25 nM), the K-α2 peptide (20 μM), and the K-α4 peptide (20 μM). A BC Z2 CS Analyzer was used to determine cell numbers (left) and cell death at 6 days (right).

“Also recorded” adds a separate entry of the source.

T1 sequence (Q9NT62 whole entry): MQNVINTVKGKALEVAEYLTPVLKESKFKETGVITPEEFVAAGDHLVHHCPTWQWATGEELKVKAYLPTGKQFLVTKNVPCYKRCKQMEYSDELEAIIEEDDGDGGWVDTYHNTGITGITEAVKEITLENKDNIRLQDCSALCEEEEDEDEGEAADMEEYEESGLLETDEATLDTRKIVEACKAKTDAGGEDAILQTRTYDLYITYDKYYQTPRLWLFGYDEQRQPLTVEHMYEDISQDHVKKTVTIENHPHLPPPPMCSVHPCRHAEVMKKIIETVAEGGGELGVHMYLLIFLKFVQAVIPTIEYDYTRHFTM
T2 sequence (Q9NT62 whole entry): as above

On to “KSHV vFLIP: viral FLIP of Kaposi's sarcoma-associated herpes virus, full-length protein”, for which the “suppression of starvation- and rapamycin-induced autophagy (GFP-LC3 puncta)” value in [1] was “strongly suppressed starvation- and rapamycin-induced autophagy; also recorded: anti-autophagy”; in assay [1] (listed as vFLIP), “effectively suppressed starvation- and rapamycin-induced autophagy”. For the same substance, the “processed LC3-II” value in assay [2] is “little or no processed LC3-II”. In addition, the “blocking of autophagy in several cell types” value in assay [3] is given as “efficiently blocked autophagy in a number of cell types”. Further, in [4], the NF-κB activation result is “carried out NF-κB activation”. In addition, in assay [5], the “blocking of TNFα-induced apoptosis” value was “anti-apoptosis”. The Atg3 binding entry in assay [6] is “strongly interacted with endogenously and exogenously expressed Atg3”. The “Atg3 regions bound (Atg3 deletion mutants)” value in assay [7] is on record as “independently bound either the aa193-268 or aa268-315 region of the C-terminal of Atg3”. In addition, the “Atg3-LC3 interaction with increasing vFLIP expression” value in [8] is “marked decrease of Atg3-LC3 interaction”. The “endogenous Atg3 and LC3 interaction” value in assay [9] was “dramatic reduction of endogenous Atg3 and LC3 interaction”. For the same substance, in assay [10], the “protection from rapamycin- or zVAD-induced growth suppression and autophagic death” value was “almost completely blocked rapamycin- or zVAD-induced growth suppression and autophagic death”. Further, the “inhibition of peptide-induced autophagy and cell death” value in [11] (TREX-BCBL-vFLIP cells treated with FLIP peptides) is “minimal”. The “suppression of rapamycin-induced autophagy (and cell death) in TREX-BCBL cells” value in assay [11] was “readily blocked rapamycin-induced autophagy and cell death”; in [11] (listed as vFLIP), “extensively suppressed rapamycin-induced autophagy”.
